According to patent EP4389113A1, “DOSAGE FORM FOR INTRAMEDULLARY INJECTION OR IMPLANTATION COMPRISING ELTROMBOPAG FOR USE IN THE IMPROVEMENT OF HEMATOPOIETIC STEM CELL TRANSPLANTATION” (PK MED, priority 2022, dated 2024):

Tests used:
[1] = after oral administration of a 50 mg tablet; cited from earlier work
human MMP-9 = biological target: T1, human MMP-9 (Homo sapiens, UniProt P14780); test: Proteolysis of SDF-1α by activated MMP-9, multiplex western blot; type: biochemical
T1 construct: made in house; host or cells: Sf9 cells
Experimental: (§1) • Particle size was determined using a Malvern Mastersizer MS3000 laser diffraction particle size analyzer. A 1 mg/ml microparticles in deionized water preparation was introduced in the apparatus and the measurement run 3 times. The results shown in the examples are the mean of the three measures. • Eltrombopag microparticle drug load was determined by first solubilizing 10 mg of drug-loaded polymeric microparticles in 2,5 mL of an acetonitrile/water mixture at a 80/20 v/v ratio. The medium was then centrifuged for 15 min at 4000 rpm and the supernatant filtrated through a 0.45 µm PTFE filter (Acrodisc PTFE). A 2 ml aliquot of the filtrated supernatant was then analyzed by HPLC to determine the microparticle drug load. HPLC analysis was conducted using a silica-based reversed-phase C18 column [Kinetex C18, 100mm × 4,6 mm, 2,6 µm particle size] and a mobile phase consisting in [acetonitrile/ammonium formate (10 mM) 80/20 v/v adjusted at pH 2]. The flow rate was set at 0,5 mL/min, the injection volume was 10µL and the UV detection was set at 244 nm. • For incubation of Eltrombopag olamine with activated human proteases, proMMP-8 and pro MMP-9 proteases were first activated. Human proMMP-8 (Cat. no. 908-MP, R&D systems) at 100 µg/ml in buffer containing 50 mM Tris, 150 mM NaCl (sodium chloride), 5 mM CaCl2 (calcium chloride) and 0.01% tween 20 (pH 7.6) was activated by incubation with 1 mM p-aminophenylmercuric acetate for 1h at 37°C. Human proMMP-9 was expressed in Sf9 cells, purified by gelatin-sepharose chromatography and activated by incubation with the catalytic domain of MMP-3 (cat. No. 444217, Merck Millipore). Specifically, human proMMP-9 at 920 µg/ml in the same described buffer as for MMP-8 activation was incubated with the catalytic domain of MMP-3 at a molar ratio of 1/100 (MMP-3/MMP-9) for 2h at 37°C in. The final concentration of MMP-9 was 10 µM and the final concentration of MMP-3 was 0.1 µM. Concentrated eltrombopag olamine solution was prepared by solubilization in water at a concentration of 10 mg/ml for 24h on rotor at 4°C, and further diluted at the final concentration needed. Activated MMP-8 or MMP-9 were then incubated at a final concentration of 625 nM in Eltrombopag olamine at different concentrations (50 µM, 10 µM, 1 µM and 0.1 µM) in a final volume of 3µl for 30 minutes at 37°C in calcium-free buffer containing 50 mM Tris, 150 mM NaCl, 0.01% tween 20 (pH 7.6) using low protein-binding tubes (Protein LoBind tubes, Eppendorf). • Incubation of human SDF-1α (Cat. no. 300-28A, Peprotech) in the solution containing the activated human proteases and eltrombopag olamine was done at a MMP/SDF-1 molar ratio of 1/5 in the same calcium-free buffer and tubes described, with a final SDF-1 α concentration of 3.125 µM and a final volume of 4µl at 37°C for 2h. A negative control without eltrombopag olamine was similarly prepared. • SDF-1 proteolysis was analyzed by multiplex western blot. All samples were diluted in reducing loading buffer (10% β-mercaptoethanol, 0.1% bromophenol blue, 4% SDS (sodium dodecyl sulfate), 20% glycerol, 125 mM Tris, pH 6.8) and boiled at 90°C for 20 min. Next, the equivalent of 100 ng SDF-1 was loaded onto Novex 16% tricine gels (Cat. no. EC6695BOX, Invitrogen). The Chameleon Duo Pre-stained Protein Ladder was used as a molecular weight using 6ul in one well. Proteins in the samples were separated by denaturing SDS-PAGE using tricine running buffer (100 mM Tris, 100 mM Tricine, 0.1% SDS, pH 8.3) under a constant voltage of 120V (±60 min). After electrophoresis, proteins were transferred to polyvinylidene difluoride (PVDF) membranes with the Trans-Blot Turbo Transfer System (Biorad) with Trans-Blot Turbo RTA Mini 0.45 µm low fluorescence PVDF Transfer Kit (Cat. No. 1704274, Biorad). […]

human MMP-8 = biological target: T2, human MMP-8 (Homo sapiens, UniProt P22894); test: Proteolysis of SDF-1α by activated MMP-8, multiplex western blot; type: biochemical
T2 construct: purchased R&D systems 908-MP
Experimental: as §1

[2] = SDF-1 plus MMP-9 plus 0.1 µM eltrombopag olamine
[3] = SDF-1 plus MMP-9 plus 1 µM eltrombopag olamine
[4] = SDF-1 plus MMP-9 plus 10 µM eltrombopag olamine
[5] = SDF-1 plus MMP-9 plus 50 µM eltrombopag olamine
[6] = SDF-1 plus MMP-8 plus 0.1 µM eltrombopag olamine
[7] = SDF-1 plus MMP-8 plus 1 µM eltrombopag olamine
[8] = SDF-1 plus MMP-8 plus 10 µM eltrombopag olamine
[9] = SDF-1 plus MMP-8 plus 50 µM eltrombopag olamine

T2 sequence (P22894 101-467): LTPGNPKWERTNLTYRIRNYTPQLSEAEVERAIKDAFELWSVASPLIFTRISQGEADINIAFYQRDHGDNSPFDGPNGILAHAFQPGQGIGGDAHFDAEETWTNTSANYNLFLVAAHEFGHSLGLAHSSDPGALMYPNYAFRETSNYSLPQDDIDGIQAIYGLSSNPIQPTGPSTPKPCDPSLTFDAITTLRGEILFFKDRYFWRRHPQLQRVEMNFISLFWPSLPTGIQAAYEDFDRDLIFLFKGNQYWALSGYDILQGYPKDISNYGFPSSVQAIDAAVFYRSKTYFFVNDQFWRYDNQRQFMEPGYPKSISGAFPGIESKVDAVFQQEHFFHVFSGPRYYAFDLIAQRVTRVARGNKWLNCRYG
T1 sequence (P14780 107-707 limits assumed): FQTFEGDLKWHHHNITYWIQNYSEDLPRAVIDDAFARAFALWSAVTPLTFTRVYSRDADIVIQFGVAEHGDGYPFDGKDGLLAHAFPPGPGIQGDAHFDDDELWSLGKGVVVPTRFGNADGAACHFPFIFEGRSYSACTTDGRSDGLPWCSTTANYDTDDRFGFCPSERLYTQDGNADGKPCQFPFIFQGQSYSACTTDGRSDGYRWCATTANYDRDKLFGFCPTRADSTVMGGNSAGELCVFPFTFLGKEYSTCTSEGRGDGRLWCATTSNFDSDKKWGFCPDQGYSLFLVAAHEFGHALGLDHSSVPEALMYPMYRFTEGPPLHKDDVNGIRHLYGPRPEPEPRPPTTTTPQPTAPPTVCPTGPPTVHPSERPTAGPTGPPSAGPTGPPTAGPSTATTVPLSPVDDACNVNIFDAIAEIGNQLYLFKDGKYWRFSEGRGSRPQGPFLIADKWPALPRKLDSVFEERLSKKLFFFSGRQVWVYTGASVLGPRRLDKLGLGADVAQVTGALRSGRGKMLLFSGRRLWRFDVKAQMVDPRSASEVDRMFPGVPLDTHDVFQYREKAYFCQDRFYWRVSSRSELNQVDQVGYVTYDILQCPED

In the case of `CC1=NN(c2ccc(C)c(C)c2)C(=O)/C1=N\Nc1cccc(-c2cccc(C(=O)O)c2)c1O` [EPAG, 3'-[(2Z)-[1-(3,4-dimethylphenyl)-1,5-dihydro-3-methyl-5-oxo-4H-pyrazol-4-ylidene]hydrazino]-2'-hydroxy-[1,1'-biphenyl]-3-carboxylic acid], the maximum plasmatic concentration [1] is listed as 14 µM.
For `CC1=NN(c2ccc(C)c(C)c2)C(=O)/C1=N\Nc1cccc(-c2cccc(C(=O)O)c2)c1O.NCCO.NCCO` [eltrombopag olamine, 3'-{(2Z)-2-[1-(3,4-dimethylphenyl)-3-methyl-5-oxo-1,5-dihydro-4H-pyrazol-4-ylidene]hydrazino}-2'-hydroxy-3-biphenylcarboxylic acid - 2-aminoethanol (1:2)], the “intact SDF-1α retrieved” value (human MMP-9; MMP-9 in the presence of 50 µM eltrombopag olamine, only 20% in its absence) was 72%, the “N-term intact SDF-1α (RFUs)” value (human MMP-9; [2]) was 0,013 RFUs and the “Ratio of intact/total SDF-1α” value (human MMP-9; [2]) was 0,003. The “Total SDF-1α (RFUs)” value (human MMP-9; [2]) was 3,951 RFUs, the “N-term intact SDF-1α (RFUs)” value (human MMP-9; [3]) was 0,012 RFUs and the “Ratio of intact/total SDF-1α” value (human MMP-9; [3]) was 0,003. For the same compound, the “Total SDF-1α (RFUs)” value (human MMP-9; [3]) was 3,644 RFUs, the “N-term intact SDF-1α (RFUs)” value (human MMP-9; [4]) was 0,010 RFUs and the “Ratio of intact/total SDF-1α” value (human MMP-9; [4]) was 0,002. The “Total SDF-1α (RFUs)” value (human MMP-9; [4]) was 4,142 RFUs, the “Ratio of intact/total SDF-1α” value (human MMP-9; [5]) was 0,007 and the “Total SDF-1α (RFUs)” value (human MMP-9; [5]) was 4,687 RFUs. For the same compound, the “N-term intact SDF-1α (RFUs)” value (human MMP-9; SDF-1 plus MMP-9 plus 50 µM eltrombopag olamine, MMP/SDF-1α molar ratio 1/5, 37°C, 2h) was 0,033 RFUs, the “intact SDF-1α retrieved” value (human MMP-8; MMP-8 in the presence of 50 µM eltrombopag olamine, only 3.5% in its absence) was 30% and the “N-term intact SDF-1α (RFUs)” value (human MMP-8; [6]) was 0,0006 RFUs. For the same compound, the “Ratio of intact/total SDF-1α” value (human MMP-8; [6]) was 0,0001, the “Total SDF-1α (RFUs)” value (human MMP-8; [6]) was 7,501 RFUs and the “N-term intact SDF-1α (RFUs)” value (human MMP-8; [7]) was 0,0001 RFUs. For the same compound, the “Ratio of intact/total SDF-1α” value (human MMP-8; [7]) was 0,0000, the “Total SDF-1α (RFUs)” value (human MMP-8; [7]) was 7,986 RFUs and the “N-term intact SDF-1α (RFUs)” value (human MMP-8; [8]) was 0,0001 RFUs. The “Ratio of intact/total SDF-1α” value (human MMP-8; [8]) was 0,0000, the “Total SDF-1α (RFUs)” value (human MMP-8; [8]) was 6,989 RFUs and the “Ratio of intact/total SDF-1α” value (human MMP-8; [9]) was 0,0002. For the same compound, the “Total SDF-1α (RFUs)” value (human MMP-8; [9]) was 10,430 RFUs and the “N-term intact SDF-1α (RFUs)” value (human MMP-8; SDF-1 plus MMP-8 plus 50 µM eltrombopag olamine, MMP/SDF-1α molar ratio 1/5, 37°C, 2h) was 0,0020 RFUs.
